Data reported in patent US20170050989A1, “Molecular Imaging Probes” (THE GENERAL HOSPITAL CORPORATION, priority 2013, published 2017).
Entries after “also recorded” stand apart in the source; their conditions may differ.

What was measured:
[1] = tested on: fibrotic liver (CCl4 mice); test: MR liver imaging in CCl4 mouse model of liver fibrosis (18 weeks); assay type: in vivo; settings: fibrotic (CCl4-treated) mouse, pre vs 30-minute post administration
Method: Liver Fibrosis: Strain A/J male mice (Jackson Laboratories, Bar Harbor, Me.) were administered 0.1 mL of a 40% solution of CCl4 (Sigma, St. Louis, Mo.) in olive oil by oral gavage three times a week for 18 weeks to induce fibrosis. Controls received only pure olive oil. Animals were imaged one week after the last injection to avoid acute effects of CCl4.
Mice were imaged with T1-weighted imaging before and after bolus (tail vein) injection of probe (Compound 1 or Compound 2) using a 4.7T scanner. Image visualization and quantification was performed using the DICOM viewer Osirix. A region of interest (ROI) was placed over the entire liver section while avoiding major blood vessels. Axial slices that cover the entire liver is analyzed (>10 slices/mouse). The signal intensity of the muscle within each slice was also quantified by a separate ROI. To estimate noise, an ROI of the air outside the animal was measured and the standard deviation of this measurement was taken. The same analysis was performed on the pre and 30-min post injection images (3D FLASH sequence).
Contrast to noise ratio (CNR) is calculated using equation (1). SI=signal intensity, SD=standard deviation, and delta CNR is the absolute difference between the pre- and post- images (2).
(§1) CNR=(SIliver−SImuscle)/SDair (1)
Delta CNR={CNRpost−CNRpre} (2)

[2] = tested on: liver fibrosis (CCl4-treated mice); test: MR liver imaging in mice after 6 or 12 weeks of CCl4 treatment, or 6 weeks plus recovery; assay type: in vivo; settings: for ΔCNR (liver:muscle contrast-to-noise ratio): 15-minute post injection; for liver signal enhancement post vs pre injection (in words): 15 min post injection
Method: Strain A/J male mice (Jackson Laboratories, Bar Harbor, Me.) were administered 0.1 ml of a 40% solution of CCl4 (Sigma, St. Louis, Mo.) in olive oil by oral gavage, three times a week for either 6 (n=14) or 12 weeks (n=10), to induce fibrosis at different stages. Controls received only pure olive oil (n=12).
Animals were imaged prior to and immediately following injection of the imaging probe. After imaging, the animals were sacrificed and the liver was removed for histopathological analyses.
Animals were anesthetized with isoflurane (1-2%) and placed in a specially designed cradle with body temperature maintained at 37° C. The tail vein was cannulated for intravenous (iv) delivery of the contrast agent while the animal was positioned in the scanner. Imaging was performed at 4.7T using a small bore animal scanner (Bruker Biospec) with a custom-built volume coil. The mouse was imaged prior to and following a bolus iv injection of Compound 1 (100 μmol/kg). The image sequence was a three dimensional fast low angle shot (3D FLASH) acquisition with repetition time (TR=15.3 ms), echo time (TE=1.54 ms), flip angle=15°, field of view 48×24×24 mm and matrix size 192×96×96 for a resolution of 250 μm isotropic and […] used 4 averages.
Image analysis was performed using the Osirix software. A region of interest (ROI) was manually traced encompassing the liver parenchyma while avoiding major blood vessels. A second ROI was placed on the dorsal muscle visible in the same image slice to quantify the signal intensity in the muscle for comparison. Seven ROIs were placed in the field of view without any tissue (air) to measure the noise in the image. More than 20 axial slices per mouse across the entire liver was analyzed in this fashion. The same analysis was performed on the pre-injection and 15-minute post injection images.
To quantify signal enhancement in the liver, contrast to noise ratio (CNR) was calculated using equation 1 below. SI=signal intensity, SD=standard deviation. An average of all image slices was calculated for the pre-injection images (CNRpre) and for the post-injection images (CNRpos). The liver enhancement for each mouse was expressed as ΔCNR, the difference between the pre-injection CNR and post-injection CNR (equation 2).
as §1
Differences among groups were tested with repeated measures ANOVA, followed by Student-Newman-Keuls post hoc test with P<0.05 considered as significant.
Strain A/J male mice (Jackson Laboratories, Bar Harbor, Me.) were administered 0.1 ml of a 40% solution of CCl4 (Sigma, St. Louis, Mo.) in olive oil by oral gavage, three times a week for 6 weeks and then allowed to recover for an additional 6 weeks (n=7). Animals were imaged prior to and immediately following injection of the imaging probe using the same protocol as in the previous example.
We compared Compound 2 to Compound 1 in terms of their ability to image fibrosis. Compound 2 has a very similar structure to Compound 1 but the hydrazide functional group has been dimethylated. The resulting dimethylhydrazide in Compound 2 is incapable of undergoing irreversible reaction with aldehyde moieties. Using the same animal model and imaging paradigm as described in the previous Example, mice that had been treated with CCl4 for 12 weeks or mice that received vehicle for 12 weeks were imaged.

[3] = T1 relaxivity of probe in solution (water) without protein; assay type: physicochemical; settings: no protein, 310K, pH 7, 0.47 T
Method: (§2) Aliquots of BSA-ALD (3 mg, 150 μL) or BSA (3mg, 163 μL) were treated for 24 h at 37° C. with either Compound 1 or Compound 2 at a range of concentrations (0.1-1.0 mM, concentrations equivalent to [Gd]:[aldehyde] ratio of 1:1, 2:1, 3:1, 4:1 and 5:1) with a total volume of 300 μl maintained for all samples. After 24 h longitudinal (T1) relaxation measurements were recorded using a Bruker mq20 Minispec at 0.47 T and 37° C. Longitudinal (T1) relaxation was acquired via an inversion recovery experiment on 10 inversions of duration ranging between 0.05×T1 and 10×T1. Relaxivity (r1) was determined from the slope of a plot of 1/T1 vs [Gd] for 5 concentrations of Gd(III).
Solutions of Compound 1 and Compound 2 (concentration range: 0.1 mM-1.0 mM, in water) were run in parallel without protein as standard controls.

[4] = target: T1, modified bovine serum albumin (BSA-ALD) (Bos taurus, UniProt P02769); test: In vitro binding assay: Gd bound to protein after ultrafiltration (ICP); settings: protein fraction after separation from free solution
T1 construct: A solution of glutaraldehyde (100 μL, 25% wt solution in water) was added to a solution of bovine serum albumin

[5] = target: T2, unmodified bovine serum albumin (BSA) (Bos taurus, UniProt P02769); test: T1 relaxivity/relaxation after incubation with unmodified BSA; assay type: binding
T2 construct: A BSA protein standard without the addition of glutaraldehyde was run in parallel as a control
Method: (§3) A solution of glutaraldehyde (100 μL, 25% wt solution in water) was added to a solution of bovine serum albumin (100 mg) dissolved in phosphate buffered saline (2 mL, pH 7.4, 0.25 mM) and left to stir at room temperature for 5 min. To this solution was added sodium cyanoborohydride (25 mg) and the solution stirred overnight at 4° C. A BSA protein standard without the addition of glutaraldehyde was run in parallel as a control. Both protein mixtures were purified on PD-10 Sephadex G25 desalting columns (GE Healthcare), eluted with water, to remove excess glutaraldehyde. Protein concentrations were assessed using the ‘BCA Protein Assay Kit’ (Thermo Scientific). […] The aldehyde concentration of each protein was estimated using a standard DNPH literature protocol.
as §2, with “Longitudinal (T1) relaxation was acquired via an inversion recovery experiment on 10 inversions of duration ranging between 0.05×T1 and 10×T1.” left out, “Gd(III). […]” for “Gd(III).”

[6] = target: T1, modified bovine serum albumin (BSA-ALD); test: T1 relaxivity/relaxation after incubation with aldehyde-modified BSA; assay type: binding
Method: as §3
as §2, with “Longitudinal (T1) relaxation was acquired via an inversion recovery experiment on 10 inversions of duration ranging between 0.05×T1 and 10×T1.” left out, “Gd(III). […]” for “Gd(III).”

[7] = target: T2, unmodified bovine serum albumin (BSA); test: In vitro binding assay: Gd bound to protein after ultrafiltration (ICP); settings: protein fraction after separation from free solution

T2 sequence (P02769 25-607): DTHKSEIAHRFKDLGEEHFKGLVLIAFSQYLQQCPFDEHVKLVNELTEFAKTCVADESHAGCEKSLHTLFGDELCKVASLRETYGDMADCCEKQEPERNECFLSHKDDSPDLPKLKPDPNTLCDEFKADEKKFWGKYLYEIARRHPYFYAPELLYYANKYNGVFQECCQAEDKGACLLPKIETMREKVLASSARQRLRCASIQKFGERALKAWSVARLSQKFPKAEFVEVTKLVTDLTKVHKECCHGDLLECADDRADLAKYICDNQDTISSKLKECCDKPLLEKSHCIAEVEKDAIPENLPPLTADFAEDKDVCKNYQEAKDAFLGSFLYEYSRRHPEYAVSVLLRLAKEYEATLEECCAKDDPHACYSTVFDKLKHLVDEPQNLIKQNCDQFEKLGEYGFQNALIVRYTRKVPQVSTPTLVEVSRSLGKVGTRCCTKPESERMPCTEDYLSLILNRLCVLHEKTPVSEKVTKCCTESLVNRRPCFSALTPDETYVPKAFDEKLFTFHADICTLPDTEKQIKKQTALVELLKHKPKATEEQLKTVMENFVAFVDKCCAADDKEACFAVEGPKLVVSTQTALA

T1 relaxivity, standard solution measurement [3]: 4.09 mM⁻¹ s⁻¹ | Gd bound to protein [4]: No statistically significant amount | change in T1 relaxation time compared to standards ([5]; fractions after separation, BSA (FIG. 5A)): did not differ significantly | T1 relaxivity with BSA ([5]; incubated 24 h at 37° C. with BSA, 310K, pH 7, 0.47 T): 4.20 mM⁻¹ s⁻¹ | T1 relaxivity with BSA-ALD ([6]; incubated 24 h at 37° C. with BSA-ALD, 310K, pH 7, 0.47 T): 4.22 mM⁻¹ s⁻¹ | change in T1 relaxation time of protein fraction compared to solution controls ([6]; protein fraction after separation, BSA-ALD (FIG. 5A)): did not differ significantly | Gd bound to protein [7]: No statistically significant amount
SMILES: CN(C)NC(=O)CC[C@H](C(=O)O)N1CCN(CC(=O)[O-])CCN(CC(=O)[O-])CCN(CC(=O)[O-])CC1.[Gd+3] [Compound 2, (R)-2,2′,2″-(10-(1-carboxy-4-(2,2-dimethylhydrazinyl)-4-oxobutyl)-1,4,7,10-tetraazacyclododecane-1,4,7-triyl)triacetic acid Gadolinium complex]
MR signal enhancement of liver [1]: very little enhancement; also recorded: little MR signal enhancement | increase in ΔCNR, 12-week CCl4-treated vs vehicle ([2]; 12-week CCl4-treated animals vs vehicle): no difference | ΔCNR (liver:muscle contrast-to-noise ratio) ([2]; 12-week CCl4-treated mice): 0.5±0.5 | liver signal enhancement post vs pre injection (in words) ([2]; 12-week CCl4-treated mice): slight enhancement | ΔCNR (liver:muscle contrast-to-noise ratio) ([2]; vehicle (olive oil) treated control mice, probe injected iv): 0.6±0.9 | liver signal enhancement post vs pre injection (in words) ([2]; vehicle treated mice): slight enhancement
